Assay results: patent publication US4238495A, “1-(4-Cyano-phenoxy)-2-hydroxy-3-[2-(5-1H-tetrazolyl )-chromon-5-yloxy]-propane and salts thereof” (Miles Laboratories, Inc., priority 1976, dated 1980)

Experiments:
in vivo = conditions: rat
Description: (§1) In the following table, ID50 is the dose which reduced the diameter of the wheal by 50% when injected intravenously together with the antigen. LD50 is the intravenous dose that caused death in 50% of the test animals. Therapeutic index is the ratio, LD50/ID50. The reference compounds utilized were: disodium chromoglycate (DSCG); 1-(phenoxy)-2-hydroxy-3-[2-(5-1H-tetrazolyl)-chromon-5-yloxy]-propane; 1-(4-chloro-phenoxy)-2-hydroxy-3-[2-(5-1H-tetrazolyl)-chromon-5-yloxy]-propane; 1-(4-hydroxy-phenoxy)-2-hydroxy-3-[2-5-1H-tetrazolyl)-chromon-5-yloxy]-propane; 1-(4-propyl-phenoxy)-2-hydroxy-3-[2-5-1H-tetrazolyl)-chromon-5-yloxy]-propane; and sodium 1-(4-cyano-phenoxy)-2-hydroxy-3-(2-carboxy-chromon-5-yloxy)-propane.

[1] = therapeutic index, LD50/ID50 (i.v. lethality over PCA); conditions: rat, in vivo, iv
Procedure: (§2) Compounds described in above examples 3 and 4 were evaluated for anti-allergic activity in the rat by the passive cutaneous anaphylaxis test (hereafter PCA), utilizing egg albumin as the antigen.
as §1

[2] = system: passive cutaneous anaphylaxis (skin wheals, egg albumin antigen); test: passive cutaneous anaphylaxis (PCA) test, egg albumin as the antigen, i.v.; assay type: in vivo; conditions: dose that reduced wheal diameter by 50%, injected i.v. together with antigen, rat PCA; for ED50: iv, read-out: ID50 (i.v.)
Procedure: as §2
The intensity of such PCA reactions is assessed by measuring the diameters of wheals which develop in the skin of the test animals. Details of the PCA test can be found in the following references: I. Mota, Life Sciences, 1: 465 (1963); and B. Ogilvie, Immunology, 12: 113 (1967).
as §1

[3] = system: passive cutaneous anaphylaxis (skin wheals, egg albumin antigen); test: therapeutic index, LD50/ID50 (i.v. lethality over PCA)
Procedure: as §2, §1

[4] = iv, LD50 (i.v.), i.v. dose that caused death in 50% of test animals
[5] = THERAPEUTIC INDEX, ratio LD50/ID50

Compound | ED50 [2] [µmol/kg] | LD50 (in vivo; [4]) [µmol/kg] | selectivity ratio [1, 5] | also measured
N#Cc1ccc(OCC(O)COc2cccc3oc(C(=O)O)cc(=O)c23)cc1.[Na] (stereo not drawn) | – | – | – | LD50 (in vivo; iv, LD50 (i.v.)): 2380 µmol/kg; selectivity ratio [1]: 3170
CCCc1ccc(OCC(O)COc2cccc3oc(-c4nnn[nH]4)cc(=O)c23)cc1 (stereo not drawn) [Augstein C3 H7] | > 25 | > 493 | > 19.7 | –
O=c1cc(-c2nnn[nH]2)oc2cccc(OCC(O)COc3ccc(Cl)cc3)c12 (stereo not drawn) [Augstein Cl, 1-(4-chloro-phenoxy)-2-hydroxy-3-[2-(5-1H-tetrazolyl)-chromon-5-yloxy]-propane] | 1.8 | – | – | LD50 (in vivo; in vivo): > 1.8 µmol/kg; selectivity ratio [1]: > 1
O=c1cc(-c2nnn[nH]2)oc2cccc(OCC(O)COc3ccccc3)c12 (stereo not drawn) [Augstein H, 1-(phenoxy)-2-hydroxy-3-[2-(5-1H-tetrazolyl)-chromon-5-yloxy]-propane] | 2.25 | > 1050 | > 467 | –
O=c1cc(-c2nnn[nH]2)oc2cccc(OCC(O)COc3ccc(O)cc3)c12 (stereo not drawn) [Augstein OH] | 0.675 | 1260 to 4950 | 1870 to 7480 | –
O=C(O)c1cc(=O)c2c(OCC(O)COc3cccc4oc(C(=O)O)cc(=O)c34)cccc2o1 [DSCG, disodium chromoglycate] | 1.7 | 1950 | 1150 | –
N#Cc1ccc(OCC(O)COc2cccc3oc(-c4nnn[nH]4)cc(=O)c23)cc1 (stereo not drawn) [Ex. 3, 1-(4-CYANO-PHENOXY)-2-HYDROXY-3-[2-(5-1H-TETRAZOLYL)CHROMON-5-YLOXY]-PROPANE] | 0.075 | > 1180 | > 15800 | therapeutic index, times greater than the nearest conger disclosed in Warren ([3]; rat, in vivo): about 5 times; therapeutic index, times greater than DSCG ([3]; versus DSCG): about 15 times
N#Cc1ccc(OCC(O)COc2cccc3oc(-c4nnn[nH]4)cc(=O)c23)cc1 (stereo not drawn) [compound 4, SODIUM 1-(4-CYANOPHENOXY)-2-HYDROXY-3-[2-(5-1H-TETRAZOLYL)CHROMON-5-YLOXY]-PROPANE] | – | – | – | ID50 (i.v.) [2]: 0.075 µmol/kg; therapeutic index compared with prior art compounds ([3]; versus any of the prior art compounds): still more superior than any of the prior art compounds
